Experimental data as given in patent publication US20090035298A1 (priority 2007, published 2009).
Several values for one entry are separate records, joined by “and”; a condition that tells them apart may be missing. Identical values can stand only once. Like-named read-outs stand apart in the source and are kept apart here. Where no end group is shown, it is not given here.

Experiments:
[1] = tested on: hippocampal ISF Aβ levels; type: in vivo, Tg2576 mice; conditions: for Effect on ISF Aβ levels versus vehicle treated mice: 50 mg/kg intraperitoneal, n=8 per group; for Effect on ISF Aβ levels versus vehicle treated mice / ISF Aβ levels, % of baseline by 12 hours: 3-4 month old Tg2576 mice; for ISF Aβ levels, % of baseline by 12 hours: n=5
[2] = tested on: neuronal activity in the hippocampus; set-up: species or system Tg2576 mice; conditions: mouse, in vivo

## C[C@]12C[C@H](O)[C@H]3[C@@H](CCC4=CC(=O)CC[C@@]43C)[C@@H]1CC[C@@H]2C(=O)CO [CORT, Corticosterone]
[1]
  Effect on ISF Aβ levels versus vehicle treated mice: no difference
[1]; listed as Corticosterone
  Effect on ISF Aβ levels versus vehicle treated mice: did not alter

## NC1=N[C@H](O)[C@H]2[C@H]3O[C@]4(O)O[C@@H]([C@@H](O)[C@@]2(N1)[C@@H]4O)[C@]3(O)CO [TTX, Tetrodotoxin]
[2]
  Effect on neuronal activity in the hippocampus: almost completely blocked
[1]; mouse, in vivo
  Change in ISF Aβ levels on 3 hours restraint stress given 8 hours after TTX treatment, compared to TTX-alone controls: no significant change
  Decrease of ISF Aβ levels over 16 hours compared to baseline: ~60%
  ISF Aβ levels for an additional 12 hours in the presence of TTX: remained low
  ISF Aβ levels, % of baseline by 17 hours from drug treatment: 58.5%

## CRF (SEEPPISLDLTFHLLREVLEMARAEQLAQQAHSNRKLMEII; ends and bridges not checked; UniProt P06850 154-194, looked up)
[1]; 100 nM by reverse microdialysis in hippocampus
  ISF Aβ levels, % of baseline by 12 hours: 138.3±7.027% and 138.3%
[1]; 100 nM in the microdialysis fluid
  Time of increase of ISF Aβ levels after drug infusion: 3 h
[1]; 200 nM by reverse microdialysis in hippocampus
  ISF Aβ levels, % of baseline by 12 hours: 171.9±17.83% and 171.9%
[1]; 200 nM in the microdialysis fluid
  Time of increase of ISF Aβ levels after drug infusion: immediately
[1]; 100 and 200 nM by reverse microdialysis
  Dose dependence of increase in ISF Aβ levels: dose-dependent manner
